In PMC4383003, “Transfer hydrogenation catalysis in cells as a new approach to anticancer drug design” (Nature Communications, 2015):
Several values for one entry are separate records, joined by “and”; a condition that tells them apart may be missing. Equal entries are not always repeated.

Tests used:
A2780 cells [1] = test: Cellular membrane integrity (CytoPainter flow cytometry); type: cell-based, human; conditions: A2780, complex 2 alone or with 2 mM sodium formate, 24 h
Description: Flow cytometry analysis of cellular membrane integrity of A2780 cells caused by exposure to complex 2 and sodium formate were carried out using the CytoPainter assay (Abcam) according to the manufacturer’s instructions. […] Cells were harvested using trypsin and stained in the dark using CytoPainter Red (Ex/Em 583/603 nm), which reacts with cell surface amines in compromised membranes. After staining, cell pellets were analysed in a Becton Dickinson FACScan Flow Cytometer.

[2] = system: A2780 ovarian cancer cells; test: Ruthenium accumulation in cancer cells (ICP-MS); type: cell-based, human
Description: Briefly, 1.5 × 10^6 cells per well were seeded on a six-well plate. […] After this time, cells were washed, treated with trypsin-EDTA, counted and cell pellets were collected. Each pellet was digested overnight in concentrated nitric acid (73%) at 353 K; the resulting solutions were diluted using double-distilled water to give a final concentration of 5% HNO3 and the amount of Ru taken up by the cells was determined by ICP–MS. […]
Supplementary Table 3: Antiproliferative activity of complexes 1-8 in A2780 ovarian cancer cells and their cellular accumulation (expressed as ng Ru per million cells).
The latter experiments were carried out using equipotent concentrations of the […]
experiments were performed as duplicates of triplicates in independent experiments and the error bars were calculated as the standard deviation from the mean. […]

calf thymus DNA = test: Interaction with calf thymus DNA (ethanol precipitation, ICP-MS of Ru); type: binding
Description: Interaction with calf thymus DNA
Complex 2 was chosen as representative of the series. A stock solution of complex 2 (0.7 mM in 5 % acetonitrile/water) was prepared and aliquots of 66 μL were added to a solution of CT-DNA (final ratio 1:3 complex: base pairs-DNA) in water, 2 mM cacodylate buffer and 2 mM NaCl. The reaction mixture was incubated at 310 K, and aliquots of 300 μL were taken at different intervals during a period of 27 h. The DNA was then precipitated by addition of ethanol (700 μL, final concentration 70% v/v). Ru complexes which are strongly bound to CT-DNA will precipitate together with the DNA upon addition of ethanol, and, therefore the ruthenium concentration in the supernatant should decrease. However, no changes in the Ru concentration were detected by ICP-MS showing that the interaction between the complex 2 and DNA is weak (t = 0 h / 64.2 ± 0.7 µM, t = 24 h/ 65.1 ± 0 .3 µM free Ru). In contrast complex 8

9-ethylguanine = test: Binding to model nucleobase 9-ethylguanine by 1H NMR; conditions: D2O, pH* 7.2 ± 0.1, 310 K
Description: Supplementary Table 4: Binding constants for formation of 9-EtG adducts of complexes 1-4 determined by 1H NMR. The experiments were performed in D2O, pH* 7.2 ± 0.1 and 310 K. Equilibrium was reached by the time the first 1H NMR spectrum was recorded (< 10 min). […]
DNA is believed to be the main target for [(bip)Ru(en)Cl]+ (8). Due to the structural similarity of the complexes 1-5 with complex 8, their binding to DNA was […]
Interaction with nucleobases
Initially, model nucleobases, 9-ethylguanine and 9-methyladenine were reacted with complexes 1-4 in D2O, 310 K and pH* 7.2 ± 0.1. The binding of the complexes to 9-EtG or 9-MeA was monitored by 1H-NMR spectroscopy. Peaks for the 9-EtG adducts were observed by the time the first spectrum was recorded (< 5 min after mixing), […]
equilibrium was reached rapidly. The binding constants for formation of 9-EtG adducts determined by NMR were between 60 and 106 mM-1 (Supplementary Table 4). These values are in the same range as that from the ethylenediamine complex [(bip)Ru(en)Cl]+ (K9-EtG= 60.3 mM-1),2 which also binds strongly to DNA.3, 4 The high resolution mass spectrum confirmed the formation of [(η6-arene)Ru(XEn)(9-EtG)]+ (Supplementary Table 5). The interaction of complexes 1-4 with 9-MeA was also investigated, but no reaction was detected by 1H-NMR.
It is well established that N7 of guanine is the preferred nucleotide binding site for many transition metals ions. 2-8 Furthermore, strong and selective binding to N7 of 9-EtG, has been observed for [(η6-arene)Ru(en)Cl]+.3, 4 A pH* titration of […]

A2780 cells [3] = test: Induction of apoptosis (Annexin V-FITC/PI flow cytometry); type: cell-based, human; conditions: A2780, complex 2 and 2 mM sodium formate, 24 h
Description: Flow cytometry analysis of apoptosis in A2780 cells caused by exposure to complex 2 and sodium formate were carried out using the Annexin V-FITC Apoptosis Detection Kit (Sigma Aldrich) according to the manufacturer’s instructions. […] Cells were harvested using trypsin and stained using PI/Annexin V-FITC. After staining, cell pellets were analysed in a Becton Dickinson FACScan Flow Cytometer. For positive-apoptosis controls, A2780 cells were exposed for 2 h to staurosporine (1 μg ml^−1). Cells for apoptosis studies were used with no previous fixing procedure as to avoid nonspecific binding of the annexin V-FITC conjugate.

[4] = system: A2780 ovarian cancer cells; test: Cell viability on co-administration of Ru complexes (1/3 x IC50) with formate or acetate; type: cell-based, human; conditions: for Cell viability percentages / Cell viability: A2780, complex 1/3 x IC50, 24 h
Description: Cell viability assays were carried out with complexes 1–8 in A2780 ovarian cancer cells. These experiments were carried out as described above with the following modifications: a fixed concentration of each Ru complex equal to 1/3 × IC50 was used in co-administration with three different concentrations of sodium formate or sodium acetate (0.5, 1.0 and 2.0 mM). To prepare the stock solution of the drug, the complex was dissolved in 5% dimethylsulfoxide and diluted in a 1:1 mixture of 0.9% saline:cell culture medium. This stock was further diluted using RPMI-1640 until working concentrations were achieved. Separately, stock solutions of sodium formate or sodium acetate were prepared in saline. The complex and formate were added to each well independently, but within 5 min of each other.
Supplementary Table 7: Percent cell viability of A2780 ovarian cancer cells exposed to equipotent concentrations of ruthenium complexes 1-3 and 5-8 (1/3 x […]
The experiments included 48 h of pre-incubation and 72 h of drug recovery, both in drug-free medium at 310 K in a 5% CO2 humidified atmosphere. All the experiments were performed as duplicates of triplicates in independent experiments and the error bars were calculated as the standard deviation from the mean.
Supplementary Table 11: Cell viability (%) of A2780 ovarian cancer cells exposed […]
administered with different concentrations of sodium acetate (0, 0.5, 1 and 2 mM).
The experiments involved 48 h of pre-incubation and 72 h of drug recovery, both in […]
Cell viability percentages (%)
Complex Acetate concentration (mM)

Cc1ccc(C(C)C)cc1.Cc1ccc(S(=O)(=O)[N-]CCN)cc1.[Cl-].[Ru+2] [Complex 2, [(p-cym)Ru(TsEn)Cl]]
cellular membrane integrity, FL2 fluorescence of CytoPainter red (A2780 cells [1]): low fluorescence | Cell Ru ([2]; A2780, 1/3 x IC50, 24 h drug exposure, no recovery time): 0.15 ± 0.04 ng x 106 cells | Cell accum. ([2]; A2780, 24 h, 1/3 x IC50): 0.15 ng Ru/10^6 cells | dependence of cellular accumulation of ruthenium on amount of formate added ([2]; A2780, complex 2 4.5 μM): no significant dependence | Cell Ru ([2]; A2780, complex 2, formate 0 mM): 0.15 ± 0.03 ng x 106 cells | Cell Ru ([2]; A2780, complex 2, formate 0.5 mM): 0.145 ± 0.009 ng x 106 cells | Cell Ru ([2]; A2780, complex 2, formate 1 mM): 0.129 ± 0.005 ng x 106 cells | Cell Ru ([2]; A2780, complex 2, formate 2 mM): 0.13 ± 0.02 ng x 106 cells | free Ru in supernatant (calf thymus DNA; CT-DNA, 1:3 complex:base pairs, 310 K, t = 0 h): 64.2 ± 0.7 µM | binding to calf thymus DNA (calf thymus DNA; ICP-MS of Ru, up to 27 h at 310 K, 1:3 complex:DNA base pairs, 2 mM cacodylate pH 7.4, 2 mM NaCl): weak and no binding | Binding constant for formation of 9-EtG adducts (9-ethylguanine): 104.9 ± 3.9 mM⁻¹ | induction of apoptosis (A2780 cells [3]): no population of cells in either of these two stages of apoptosis was detected | Cell viability percentages ([4]; acetate 0 mM): 70.8 ± 0.6% | Cell viability percentages ([4]; acetate 0.5 mM): 69.4 ± 0.9% | Cell viability percentages ([4]; acetate 1 mM): 68.9 ± 0.3% | Cell viability percentages ([4]; acetate 2 mM): 67.1 ± 0.6% | Cell viability ([4]; formate 0.5 mM): 49.7 ± 0.8% | Cell viability ([4]; formate 1 mM): 38.2 ± 0.6% | Cell viability ([4]; formate 2 mM): 1.5 ± 0.1% and ~1% | decrease in cell survival ([4]; A2780, formate increased from 0 to 2 mM): ca. 50 fold
